Data on ten molecules can be found in ChEMBL document CHEMBL1201862, “PubChem BioAssay data set” (2004).

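All cell lines were grown in 96-well plates and treated with compound for 48 hours. GI50 marks 50% less growth.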 Activity calls are given as the source filed them. Cut-off read from the data, not from the text of the source: active = GI50 up to about 1.1 µM and inactive = higher.

What all share (experiment): NCI tumour cell line growth inhibition, 48 h
The test system of experiment [1] is 786-0.
Experiment [2] relates to A498.
In experiment [3] the test system is ACHN.
In experiment [4] the test system is DU-145.
Experiment [5] concerns HCC 2998.
The subject of experiment [6] is HT-29.
The subject of experiment [7] is K562.
Experiment [8] deals with KM12.
Experiment [9] relates to MDA-MB-231.
The subject of experiment [10] is MDA-MB-435.
For experiment [11], the system named is MDA-N.
Experiment [12] has as its system NCI-H522.
Experiment [13] relates to NCI/ADR-RES.
The subject of experiment [14] is OVCAR-8.
Experiment [15] has as its system SF-268.
Experiment [16] deals with SF-295.
In experiment [17] the test system is SF-539.
Experiment [18] concerns SK-MEL-2.
Experiment [19] relates to SNB-75.
Experiment [20] has as its system T47D.

Take `CCOC(=O)c1ccc(-n2cnc(-c3ccc([N+](=O)[O-])cc3)c2)cc1`: the GI50 in experiment [1], in experiment [2], in experiment [3], in experiment [4], in experiment [5] and in experiment [6] was > 100 µM (inactive) in each case. Also, the GI50 was > 100 µM (inactive) in [7]; > 100 µM (inactive) in [8]; > 100 µM (inactive) in experiment [9]; > 100 µM (inactive) in [10]; > 100 µM (inactive) in experiment [11]; 13.1 µM (inactive) in experiment [12]. The GI50 is > 100 µM (inactive) in [13]; > 100 µM (inactive) in experiment [14]; 56.2 µM (inactive) in [15]; > 100 µM (inactive) in experiment [16]; > 100 µM (inactive) in [17]; > 100 µM (inactive) in experiment [18]. In addition, the GI50 in experiment [19] is 40.6 µM (inactive); in experiment [20] it was 95.7 µM (inactive).
As to `O=C1NCC2(CCNCC2)N1c1ccccc1`, the GI50 in experiment [1], in experiment [2], in [3], in experiment [4], in experiment [5] and in experiment [6] was > 100 µM (inactive) each time. Besides, the GI50 in experiment [7], in [8], in experiment [9], in experiment [10], in experiment [11] and in experiment [12] was > 100 µM (inactive) throughout. The GI50 in experiment [13], in experiment [14], in [15], in [16], in experiment [17] and in [18] was > 100 µM (inactive) throughout. In addition, the GI50 in experiment [19] and in experiment [20] was > 100 µM (inactive) throughout.
As to `O=C(c1ccc(Cl)cc1Cl)N(Cc1cccnc1)C(=S)N(Cc1cccnc1)C(=O)c1ccc(Cl)cc1Cl`, the GI50 in experiment [1] is 2.12 µM (inactive); in experiment [2], 10.3 µM (inactive); in [3] it was 9.62 µM (inactive); in [4], 3.39 µM (inactive); in experiment [5], 3.4 µM (inactive); in experiment [6], 2.38 µM (inactive). Moreover, the GI50 in [7] was 3.52 µM (inactive); in experiment [8], 2.96 µM (inactive); in experiment [9], 2.75 µM (inactive); in experiment [10], 17.7 µM (inactive); in experiment [11], 2.31 µM (inactive); in [12], 2.94 µM (inactive). In addition, the GI50 was 15.5 µM (inactive) in experiment [13]; 3.35 µM (inactive) in experiment [14]; 4.68 µM (inactive) in experiment [15]; 22.2 µM (inactive) in experiment [16]; 2.22 µM (inactive) in experiment [17]; 3.58 µM (inactive) in experiment [18]. The results for the GI50 in experiment [19] and in [20] were 4.07 µM (inactive) and 11.4 µM (inactive), respectively.
Turning to `C[n+]1c(-c2ccc(/C=C/C=N\NC(=O)c3ccc(C(=O)N/N=C\C=C\c4ccc(-c5cn6ccccc6[n+]5C)cc4)cc3)cc2)cn2ccccc21`, the GI50 was 30.3 µM (inactive) in experiment [1]; > 100 µM (inactive) in experiment [2]; > 100 µM (inactive) in [3]; > 54.3 µM (inactive) in experiment [4]; > 54.7 µM (inactive) in experiment [5]; > 100 µM (inactive) in experiment [6]. The GI50 in experiment [7] was 27.5 µM (inactive); in experiment [8], 39.1 µM (inactive); in experiment [9], > 43.3 µM (inactive); in experiment [10], > 100 µM (inactive); in experiment [11] it was > 100 µM (inactive); in [12] it was > 100 µM (inactive). The GI50 in experiment [13], in experiment [14], in experiment [15], in experiment [16], in [17] and in [18] was > 100 µM (inactive) each time. Moreover, the figures for the GI50 in experiment [19] and in experiment [20] were > 100 µM (inactive) and > 48.1 µM (inactive), respectively.
On to `CN(C)c1ccc(C=c2c3ccccc3n3c2c2c([n+]3C)CCCC2)cc1`, for which the GI50 in [1] is 0.261 µM (active); in experiment [2], 0.247 µM (active); in experiment [3], 0.314 µM (active); in [4], 0.245 µM (active); in [5], 0.0792 µM (active); in [6], 0.114 µM (active). Moreover, the GI50 is 0.023 µM (active) in experiment [7]; 0.0681 µM (active) in experiment [8]; 0.575 µM (active) in experiment [9]; 0.109 µM (active) in experiment [10]; 0.1 µM (active) in [11]; 0.161 µM (active) in [12]. Further, the GI50 in [13] was 3.17 µM (inactive); in experiment [14], 0.128 µM (active); in experiment [15] it was 0.183 µM (active); in experiment [16] it was 0.0991 µM (active); in [17], 0.165 µM (active); in experiment [18], 0.173 µM (active). For the same molecule, the values for the GI50 in [19] and in [20] were 0.0796 µM (active) and 0.0191 µM (active), respectively.
As for `O=C(O[C@H]1[C@@H](O)[C@H](n2cnc3c(Cl)ncnc32)O[C@@H]1COC(c1ccccc1)(c1ccccc1)c1ccccc1)c1ccccc1`, the GI50 in experiment [1] is 14.9 µM (inactive); in experiment [2] it was 17.2 µM (inactive); in experiment [3], 15.7 µM (inactive); in [4] it was 1.91 µM (inactive); in experiment [5] it was 16.1 µM (inactive); in experiment [6] it was 18.5 µM (inactive). The GI50 in experiment [7] was 3.6 µM (inactive); in [8] it was 16.1 µM (inactive); in experiment [9], 21.2 µM (inactive); in [10], 26.8 µM (inactive); in [11], 35.9 µM (inactive); in experiment [12], 5.09 µM (inactive). Moreover, the GI50 is 34.8 µM (inactive) in experiment [13]; 25.4 µM (inactive) in experiment [14]; 15.4 µM (inactive) in [15]; 19.8 µM (inactive) in [16]; 20 µM (inactive) in experiment [17]; 21.2 µM (inactive) in experiment [18]. Moreover, the values for the GI50 in experiment [19] and in experiment [20] were 45.4 µM (inactive) and 3.98 µM (inactive), respectively.
For `CC(C)CCC/C(CBr)=C(\Cl)CCl`, the GI50 in [1] was 1.85 µM (inactive); in [2] it was 20.7 µM (inactive); in [3], 11.2 µM (inactive); in experiment [4], 5.52 µM (inactive); in experiment [5], 8.59 µM (inactive); in experiment [6], 2.37 µM (inactive). For the same molecule, the GI50 in experiment [7] is 0.104 µM (active); in [8], 2.15 µM (inactive); in experiment [9], 2.81 µM (inactive); in [10] it was 2.36 µM (inactive); in [11] it was 1.83 µM (inactive); in [12], 0.15 µM (active). The GI50 is 3.27 µM (inactive) in experiment [13]; 1.56 µM (inactive) in [14]; 3.55 µM (inactive) in experiment [15]; 13.3 µM (inactive) in experiment [16]; 10.4 µM (inactive) in experiment [17]; 1.46 µM (inactive) in [18]. Also, the results for the GI50 in [19] and in experiment [20] were 1.95 µM (inactive) and 1.17 µM (inactive), respectively.
With `CC(C)C[C@H](NC(=O)[C@H](CCc1ccccc1)NC(=O)c1ccc2ccccc2n1)B(O)O`, the GI50 in experiment [1] is < 0.0225 µM (active); in experiment [2], 0.0471 µM (active); in [3] it was < 0.01 µM (active); in experiment [4], 0.0752 µM (active); in experiment [5] it was 0.0292 µM (active); in experiment [6] it was < 0.0113 µM (active). Moreover, the GI50 in [7] is 0.0439 µM (active); in experiment [8], 0.0644 µM (active); in [9], 0.134 µM (active); in experiment [10], < 0.01 µM (active); in [11], < 0.01 µM (active); in [12] it was < 0.0128 µM (active). Also, the GI50 is 0.706 µM (active) in [13]; 0.163 µM (active) in experiment [14]; 0.0571 µM (active) in experiment [15]; 0.053 µM (active) in experiment [16]; < 0.01 µM (active) in experiment [17]; < 0.01 µM (active) in experiment [18]. For the same molecule, the GI50 was 0.0302 µM (active) in experiment [19] and < 0.01 µM (active) in experiment [20].
For `CCOc1cnc(C(O)(c2ccccc2)c2ccccc2)o1`, the GI50 in experiment [1], in experiment [2], in [3], in experiment [4], in [5] and in experiment [6] was > 100 µM (inactive) each time. Further, the GI50 in experiment [7], in experiment [8], in [9], in [10], in [11] and in [12] was > 100 µM (inactive) in each case. Besides, the GI50 in experiment [13], in experiment [14], in experiment [15], in experiment [16], in experiment [17] and in experiment [18] was > 100 µM (inactive) in each case. The GI50 in experiment [19] and in experiment [20] was > 100 µM (inactive) throughout.
For `CC(=O)OCC(=O)O[C@@H]1[C@H]2[C@@H](OC(=O)c3ccccc3)[C@@H](C)C[C@]2(O)[C@H](OC(C)=O)[C@@]2(C)C(OC(C)=O)[C@]1(OC(C)=O)C[C@H]1C(=O)C(C)(C)C[C@@H]12` (stereo not given in full), the GI50 in experiment [1] was > 50 µM (inactive); in experiment [2] it was 29.1 µM (inactive); in [3], > 45.3 µM (inactive); in [4] it was > 50 µM (inactive); in experiment [5], 25.8 µM (inactive); in experiment [6] it was 25.8 µM (inactive). Further, the GI50 in experiment [7] is 9.02 µM (inactive); in [8], > 50 µM (inactive); in experiment [9], > 50 µM (inactive); in experiment [10], 26.2 µM (inactive); in [11], 18.1 µM (inactive); in experiment [12], > 50 µM (inactive). The GI50 was > 50 µM (inactive) in experiment [13]; > 50 µM (inactive) in [14]; > 50 µM (inactive) in experiment [15]; 22.4 µM (inactive) in [16]; 34.5 µM (inactive) in experiment [17]; > 50 µM (inactive) in [18]. The GI50 in experiment [19] and in experiment [20] was > 50 µM (inactive) each time.
